From patent US11291640B2, “Endoxifen for the treatment of bipolar I disorder” (Jina Pharmaceuticals, Inc., priority 2020, dated 2022)
Structures can show the parent of a compound that is named as a salt.

Assays:
[1] = system: patients of bipolar I disorders; assay: Clinical study, total YMRS score at each visit; assay type: in vivo; conditions: day 21 (EOT); patient with bipolar I disorders
Method: (§1) Clinical study of an enteric coated tablet comprising endoxifen citrate formulation was carried out by administering to the patient doses of 2 mg to 16 mg of endoxifen citrate in an enteric coated tablet once per day for at least 21 days according to the present application.
(§2) The clinical study was a multicenter, randomized, double-blind, double-dummy, active controlled, parallel study to assess the efficacy and safety of endoxifen enteric coated tablet 8 mg and divalproex sodium extended release tablet 1000 mg in patients of bipolar I disorders.
(§3) Total 228 patients were enrolled in the study. All 228 patients were qualified for safety and mITT population and 213 patients were qualified for PP population.

[2] = system: patients of bipolar I disorders; assay: Clinical study, MADRS score at each visit; assay type: in vivo; conditions: day 21 (EOT); patient with bipolar I disorders
Method: as §1, §2, §3

[3] = system: patients of bipolar I disorders; assay: Clinical study, response time, remission time and therapeutic dose monitoring; assay type: in vivo; conditions: from table 1 and 2
Method: The term “response time” means an early indicator of treatment efficacy and it is not more than 2 days of treatment according to the embodiments described herein.
The term “remission time” refers to an absence or minimal symptoms of both mania and depression, which is not more than 4 days of treatment according to the embodiments described herein. Remission is the target of acute treatment.
as §1, §2

PKC = conditions: cited from earlier work

With CC/C(=C(\c1ccc(O)cc1)c1ccc(OCCNC)cc1)c1ccccc1 [Endoxifen, (Z)-1-(4-Hydroxyphenyl)-1-{4-[2-(monomethylamino)ethoxy]phenyl}-2-pheny 1-1-butene citrate] as the compound, how does the “improvement in the YMRS score” value [1] read?
Its value is “significant and sustained improvements”.

What about the “improvement in the MADRS score” value [2] of the same compound?
The value was “significant and sustained improvements”.

And the “early response time of the treatment” value [3]?
The value was “at least 2 days”.

What about the “remission time of treatment” value [3] of the same compound?
Its value is “not more than 4 days”.

And the “potency in inhibiting the PKC activity compared to tamoxifen” value (PKC)?
The value was “four-fold higher potency”.
